Assay results published in ChEMBL document CHEMBL1201862, “PubChem BioAssay data set” (2004).
Active and inactive are the calls of the source.

System: not listed separately
Experiment: viability of uninfected HEp-2 cells – cell-based, HTS, cytotoxicity control for RSV inhibitor project, dose response (AID 2410)
Format: functional
Conditions: human respiratory syncytial virus

Structure (SMILES)	CC50
CC1Oc2cc3oc4c(O)c5c(cc4c(=O)c3c(O)c2C1(C)C)C=CC(C)(C)O5 (centres undefined) [GERONTOXANTHONE A]	14.9 µM (active)

System: not listed separately
Experiment: Luminescence Cell-Based Dose Response HTS to Identify Activators of Luciferase Translation or Activity in H4 […] Cells. [Related pubchem assays: 1829 (Project Summary), 1814 (Primary HTS)]
Format: functional
Conditions: not given

Structure (SMILES)	EC50
[O-][n+]1onc2c3ccnnc3ccc21	1.93 µM (active)
CC1Oc2cc3oc4c(O)c5c(cc4c(=O)c3c(O)c2C1(C)C)C=CC(C)(C)O5 (centres undefined) [GERONTOXANTHONE A]	2.13 µM (active)
Cc1cccc(Nc2nc3c(s2)CCCC3)c1	2.59 µM (active)

System: Streptococcus sp. 'group A'
Experiment: Streptococcus pyogenes SK(-)GAS viability under kanamycin – luminescence, BacTiterGlo, confirmation, counter-screen for streptokinase expression inhibitor project, dose response (AID 1900)
Format: functional, organism-based
Conditions: not given

Structure (SMILES)	EC50
CC1Oc2cc3oc4c(O)c5c(cc4c(=O)c3c(O)c2C1(C)C)C=CC(C)(C)O5 (centres undefined) [GERONTOXANTHONE A]	1.11 µM (active)
Cc1ccc(C(=O)NNC(=S)NC(=O)c2ccc(Cl)cc2Cl)cc1	0.196 µM (active)

System: H4
Experiment: Luminescence Cell-Based Dose Response HTS to Identify Activators of 5'UTR Stem-Loop Driven Prion Protein mRNA Translation in H4 Neuroglioblastoma Cells. [Related pubchem assays: 1829 (Project Summary), 1814 (Primary HTS)]
Format: functional
Conditions: Homo sapiens

Structure (SMILES)	EC50
[O-][n+]1onc2c3ccnnc3ccc21	> 120 µM (not active)
Cc1cccc(Nc2nc3c(s2)CCCC3)c1	3.41 µM (active)

Biological target: T1, Heat shock factor protein 1 (Mus musculus, UniProt P38532)
T1 sequence (P38532 whole entry): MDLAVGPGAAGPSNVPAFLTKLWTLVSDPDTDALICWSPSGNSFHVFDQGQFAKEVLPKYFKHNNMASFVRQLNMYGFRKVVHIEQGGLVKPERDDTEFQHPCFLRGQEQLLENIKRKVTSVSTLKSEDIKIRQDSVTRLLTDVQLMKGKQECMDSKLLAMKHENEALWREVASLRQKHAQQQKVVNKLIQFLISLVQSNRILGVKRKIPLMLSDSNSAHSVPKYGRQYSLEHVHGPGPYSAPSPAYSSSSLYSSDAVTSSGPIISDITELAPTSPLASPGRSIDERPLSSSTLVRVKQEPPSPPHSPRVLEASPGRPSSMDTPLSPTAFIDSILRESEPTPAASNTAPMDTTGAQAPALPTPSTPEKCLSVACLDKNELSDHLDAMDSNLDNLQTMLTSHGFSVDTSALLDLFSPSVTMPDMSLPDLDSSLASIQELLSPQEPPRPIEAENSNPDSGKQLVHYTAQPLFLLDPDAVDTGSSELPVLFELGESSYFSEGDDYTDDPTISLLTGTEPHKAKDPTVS
Experiment: decrease of HSF1-responsive luciferase luminescence – cell-based, NIH3T3, dose retest, confirmation (AID 2382);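 further: NIH3T3 fibroblasts with HSF1-driven luciferase reporter stressed by proteasome inhibitor MG132; luminescence from HSF1-driven luciferase expression after 8 hours of MG132 stress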
Format: functional
Conditions: not given

Structure (SMILES)	EC50
O=C(NC(=S)Nc1ccc(F)cc1)c1ccc2c(c1)OCCO2	> 195 µM (not active)

Biological target: T2, Streptokinase A (Streptococcus pyogenes serotype M1, UniProt P10520)
T2 sequence (P10520 whole entry): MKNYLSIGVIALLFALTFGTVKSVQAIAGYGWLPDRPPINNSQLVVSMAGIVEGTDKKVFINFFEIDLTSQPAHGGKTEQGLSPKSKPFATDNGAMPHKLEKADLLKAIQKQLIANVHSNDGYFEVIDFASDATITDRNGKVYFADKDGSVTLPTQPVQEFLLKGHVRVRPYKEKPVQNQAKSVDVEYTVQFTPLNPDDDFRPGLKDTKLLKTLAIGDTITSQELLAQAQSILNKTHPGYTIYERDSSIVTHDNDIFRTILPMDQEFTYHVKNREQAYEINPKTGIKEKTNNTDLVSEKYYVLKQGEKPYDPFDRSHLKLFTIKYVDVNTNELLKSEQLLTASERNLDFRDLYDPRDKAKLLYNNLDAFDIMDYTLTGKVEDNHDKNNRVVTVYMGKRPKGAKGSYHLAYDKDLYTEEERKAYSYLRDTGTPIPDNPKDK
Experiment: viability-normalized secreted streptokinase activity reduction – plasminogen activation absorbance, OD405, dose response (AID 1914);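 further: secreted streptokinase activity via plasminogen activation per viability signal from cell pellet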
Format: functional, Streptococcus pyogenes M1 GAS
Conditions: not given

Structure (SMILES)	EC50
CC1Oc2cc3oc4c(O)c5c(cc4c(=O)c3c(O)c2C1(C)C)C=CC(C)(C)O5 (centres undefined) [GERONTOXANTHONE A]	10.7 µM (active)

System: Streptococcus
Experiment: GAS UMAA2166 growth inhibition – luminescence, BacTiterGlo, counter-screen for streptokinase expression inhibitor project, dose response (AID 1915);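 further: potency for reduction of bacterial viability or growth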
Format: functional, organism-based
Conditions: not given

Structure (SMILES)	EC50
CC1Oc2cc3oc4c(O)c5c(cc4c(=O)c3c(O)c2C1(C)C)C=CC(C)(C)O5 (centres undefined) [GERONTOXANTHONE A]	25.9 µM (active)
Cc1ccc(C(=O)NNC(=S)NC(=O)c2ccc(Cl)cc2Cl)cc1	3.82 µM (active)

Biological target: Cytochrome P450 2C19 (Homo sapiens, UniProt P33261)
Experiment: Cytochrome panel assay with activity outcomes. Panel member name: p450-cyp2c19 Compounds with AC50 equal or less than 10 uM are considered active
Format: functional
Conditions: read-out: AC50

Cytochrome P450 2C19, sequence (P33261 whole entry): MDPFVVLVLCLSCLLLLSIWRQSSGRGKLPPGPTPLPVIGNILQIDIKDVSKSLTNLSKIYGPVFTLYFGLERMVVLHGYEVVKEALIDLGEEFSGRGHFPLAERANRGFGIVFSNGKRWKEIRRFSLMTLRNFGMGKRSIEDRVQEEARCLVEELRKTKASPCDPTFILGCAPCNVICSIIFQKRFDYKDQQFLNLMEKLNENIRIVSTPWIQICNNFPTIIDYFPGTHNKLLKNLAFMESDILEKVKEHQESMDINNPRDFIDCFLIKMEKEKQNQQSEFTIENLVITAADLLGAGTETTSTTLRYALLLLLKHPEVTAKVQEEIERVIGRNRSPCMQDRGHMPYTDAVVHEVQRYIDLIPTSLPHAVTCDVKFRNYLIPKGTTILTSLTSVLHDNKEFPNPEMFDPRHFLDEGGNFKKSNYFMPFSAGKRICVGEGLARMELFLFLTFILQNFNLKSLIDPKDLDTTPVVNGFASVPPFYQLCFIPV

Structure (SMILES)	AC50
COc1ccc(NC(=O)CSc2nnc(CNC(=O)c3ccco3)n2-c2ccccc2OC)cc1	3.98 µM (inconclusive)
COC(=O)[C@@]1(Cc2ccc(F)cc2)[C@H]2c3cc(C(=O)N(C)C)n(Cc4cc(C)n(C)n4)c3C[C@H]2CN1C(=O)c1ccccc1	39.8 µM (inconclusive)
C1=Cc2ccccc2C1.C=C(C)c1ccccc1.[N-]=[N+]=Nc1ccccc1	3.16 µM (inconclusive)
O=C(NCc1ccc2c(c1)OCO2)C1CC(=O)N(C2CCCC2)C1 (centres undefined)	35.5 µM (inconclusive)
COC(=O)[C@@]1(Cc2ccc(F)cc2)[C@H]2c3cc(C(=O)N(C)C)n(Cc4ccc(Cl)c(C(F)(F)F)c4)c3C[C@H]2CN1C(=O)c1ccccc1	5.01 µM (inconclusive)

Biological target: T3, Corticotropin-releasing factor receptor 2/Corticotropin-releasing factor-binding protein (Homo sapiens, UniProt P24387+Q13324)
T3 sequence (Q13324 whole entry): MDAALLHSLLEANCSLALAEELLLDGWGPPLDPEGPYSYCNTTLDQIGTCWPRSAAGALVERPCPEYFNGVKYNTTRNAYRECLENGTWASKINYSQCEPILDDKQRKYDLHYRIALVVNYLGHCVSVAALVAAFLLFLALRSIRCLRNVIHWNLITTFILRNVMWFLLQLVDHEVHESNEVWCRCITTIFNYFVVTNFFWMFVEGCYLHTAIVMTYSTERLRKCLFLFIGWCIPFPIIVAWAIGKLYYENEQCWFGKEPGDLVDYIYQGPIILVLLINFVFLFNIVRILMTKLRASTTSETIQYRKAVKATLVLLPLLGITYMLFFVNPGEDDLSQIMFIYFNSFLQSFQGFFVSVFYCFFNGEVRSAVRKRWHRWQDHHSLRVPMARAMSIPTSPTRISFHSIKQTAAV
T3 sequence (P24387 whole entry): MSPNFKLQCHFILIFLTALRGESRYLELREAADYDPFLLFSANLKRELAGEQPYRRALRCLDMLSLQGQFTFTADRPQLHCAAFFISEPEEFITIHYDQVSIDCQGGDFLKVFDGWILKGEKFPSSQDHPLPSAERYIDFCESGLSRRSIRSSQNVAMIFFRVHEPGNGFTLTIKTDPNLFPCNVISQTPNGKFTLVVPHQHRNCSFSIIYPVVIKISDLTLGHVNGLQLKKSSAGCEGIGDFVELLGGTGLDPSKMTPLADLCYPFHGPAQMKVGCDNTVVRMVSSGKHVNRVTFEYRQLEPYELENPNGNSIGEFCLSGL
Experiment: activators of CRF receptor 2 with binding protein – uHTS hits, confirmation (AID 602473)
Format: functional
Conditions: read-out: EC50_Mean

Structure (SMILES)	EC50
Cc1cc(F)ccc1S(=O)(=O)NCC1CC2CCC1C2 (centres undefined)	> 53 µM (inactive)
O=C(NC(=S)Nc1ccc(F)cc1)c1ccc2c(c1)OCCO2	> 53 µM (inactive)
CCOc1ccc(NS(=O)(=O)c2ccc(C(=O)NCC(c3cccs3)N3CCOCC3)cc2)cc1 (centres undefined)	5.04 µM (active)
CCN(CC)c1ccc(C=C2SC(=S)NC2=O)cc1	4.11 µM (active)
Cc1ccc(C(=O)NNC(=S)NC(=O)c2ccc(Cl)cc2Cl)cc1	2.78 µM (active)

Biological target: Paired box protein Pax-8 (Homo sapiens, UniProt Q06710)
Experiment: PAX8 transcriptional activity inhibition in RMG-I – RMG-I cells, luciferase, cherry-pick, dose response (AID 687027);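 further: luciferase reporter driven by Pax8 target thyroperoxidase promoter measured by SteadyGlo luminescence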
Format: functional, cell-based
Conditions: not given

Paired box protein Pax-8, sequence (Q06710 whole entry): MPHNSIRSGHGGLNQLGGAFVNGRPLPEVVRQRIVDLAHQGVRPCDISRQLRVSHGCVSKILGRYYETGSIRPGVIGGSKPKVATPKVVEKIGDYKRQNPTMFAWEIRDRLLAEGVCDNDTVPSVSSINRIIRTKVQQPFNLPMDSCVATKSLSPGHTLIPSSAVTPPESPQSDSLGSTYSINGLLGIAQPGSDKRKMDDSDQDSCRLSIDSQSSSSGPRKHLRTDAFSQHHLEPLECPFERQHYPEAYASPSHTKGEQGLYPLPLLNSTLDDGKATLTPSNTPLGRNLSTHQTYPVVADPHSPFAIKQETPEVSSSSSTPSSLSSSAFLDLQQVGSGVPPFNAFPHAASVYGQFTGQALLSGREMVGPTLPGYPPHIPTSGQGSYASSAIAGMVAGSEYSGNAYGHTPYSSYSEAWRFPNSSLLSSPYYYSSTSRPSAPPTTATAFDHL

Structure (SMILES)	AC50
COc1cc(OC)c2c(-c3cccc(-c4ccc(OC)c(F)c4)c3)cc(=O)oc2c1	1.08 µM (active)
CCOc1ccc(C(CN2CCOCC2)C(C)=O)cc1OC (centres undefined)	1.68 µM (active)
Cc1ccc(S(=O)(=O)Nc2ccc3c(c2)C(=O)N([C@@H](C)CO)C[C@@H](C)[C@@H](CN(C)Cc2ccc(C(F)(F)F)cc2)OCCCC[C@@H](C)O3)cc1	13.3 µM (active)
COc1ccc(S(=O)(=O)Nc2ccc3c(c2)CC(=O)N([C@H](C)CO)C[C@H](C)[C@@H](CN(C)Cc2ccc(Cl)c(Cl)c2)O3)cc1	16.2 µM (active)
CCCCn1nc(C(=O)Nc2cc(C(F)(F)F)ccc2N2CCOCC2)ccc1=O	4.7 µM (active)

Biological target: Cytochrome P450 2D6 (Homo sapiens, UniProt P10635);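 further: CYP2D6 member of a cytochrome P450 panel assay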
Conditions: not given

Cytochrome P450 2D6, sequence (P10635 whole entry): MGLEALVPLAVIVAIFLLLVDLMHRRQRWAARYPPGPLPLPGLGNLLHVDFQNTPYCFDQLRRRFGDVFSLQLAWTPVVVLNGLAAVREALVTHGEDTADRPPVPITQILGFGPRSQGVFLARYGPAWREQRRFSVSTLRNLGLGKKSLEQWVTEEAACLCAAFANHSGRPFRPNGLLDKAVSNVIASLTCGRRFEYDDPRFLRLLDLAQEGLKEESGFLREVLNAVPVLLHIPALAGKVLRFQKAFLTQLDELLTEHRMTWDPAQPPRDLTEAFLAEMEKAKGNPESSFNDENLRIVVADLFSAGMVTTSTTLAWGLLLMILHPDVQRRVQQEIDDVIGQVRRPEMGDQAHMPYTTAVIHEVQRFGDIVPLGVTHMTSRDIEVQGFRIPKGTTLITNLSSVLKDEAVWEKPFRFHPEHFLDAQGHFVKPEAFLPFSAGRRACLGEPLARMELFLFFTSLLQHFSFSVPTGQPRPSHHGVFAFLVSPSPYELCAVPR

Structure (SMILES)	AC50
COC(=O)[C@@]1(Cc2ccc(OC)cc2)[C@H]2c3cc(C(=O)N4CCCC4)n(CCc4ccc(O)c(OC)c4)c3C[C@H]2CN1C(=O)c1ccccc1	39.8 µM (inconclusive)
O=C(CN1CCN(c2ccc(Cl)cc2)CC1)Nc1cccc(F)c1	1.41 µM (inconclusive)
COc1ccc2[nH]c(-c3ccccc3)c(CCNC(C)=O)c2c1	25.1 µM (inconclusive)
COc1ccc(NC(=O)CSc2nnc(CNC(=O)c3ccco3)n2-c2ccccc2OC)cc1	35.5 µM (inconclusive)
COC(=O)[C@@]1(Cc2ccc(F)cc2)[C@H]2c3cc(C(=O)N(C)C)n(Cc4cc(C)n(C)n4)c3C[C@H]2CN1C(=O)c1ccccc1	39.8 µM (inconclusive)
CC(=O)O[C@@H]1CN2CCC1CC2 [(S)-ACECLIDINE]	15.8 µM (inconclusive)
Clc1ccc(COc2ccccn2)cc1Cl	11.2 µM (inconclusive)
C1=Cc2ccccc2C1.C=C(C)c1ccccc1.[N-]=[N+]=Nc1ccccc1	3.98 µM (inconclusive)
CC(C)C(=O)NCCCc1ccccc1	20 µM (inconclusive)
O=C(NCc1ccc2c(c1)OCO2)C1CC(=O)N(C2CCCC2)C1 (centres undefined)	12.6 µM (inconclusive)
COC(=O)[C@@]1(Cc2ccc(F)cc2)[C@H]2c3cc(C(=O)N(C)C)n(Cc4ccc(Cl)c(C(F)(F)F)c4)c3C[C@H]2CN1C(=O)c1ccccc1	6.31 µM (inconclusive)

Biological target: T4, Cytochrome P450 1A2 (Homo sapiens, UniProt P05177);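 further: PubChem cytochrome P450 panel assay, CYP1A2 panel member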
T4 sequence (P05177 whole entry): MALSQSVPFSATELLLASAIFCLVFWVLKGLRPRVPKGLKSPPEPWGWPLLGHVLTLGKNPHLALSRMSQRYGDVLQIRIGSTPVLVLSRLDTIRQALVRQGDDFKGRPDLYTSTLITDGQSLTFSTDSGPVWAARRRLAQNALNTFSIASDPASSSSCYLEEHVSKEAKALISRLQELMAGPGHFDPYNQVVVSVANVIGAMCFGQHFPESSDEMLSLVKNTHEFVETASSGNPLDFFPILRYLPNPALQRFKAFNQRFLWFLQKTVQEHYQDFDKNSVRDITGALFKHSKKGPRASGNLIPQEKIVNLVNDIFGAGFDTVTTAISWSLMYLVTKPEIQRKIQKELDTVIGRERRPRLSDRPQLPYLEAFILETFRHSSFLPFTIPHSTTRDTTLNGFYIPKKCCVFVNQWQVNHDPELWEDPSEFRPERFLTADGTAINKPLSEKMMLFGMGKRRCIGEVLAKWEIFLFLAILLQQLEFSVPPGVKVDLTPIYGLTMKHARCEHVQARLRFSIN
Conditions: not given

Structure (SMILES)	AC50
O=C(NCc1ccc2c(c1)OCO2)C1CC(=O)N(C2CCCC2)C1 (centres undefined)	17.8 µM (inconclusive)
COC(=O)[C@@]1(Cc2ccc(F)cc2)[C@H]2c3cc(C(=O)N(C)C)n(Cc4ccc(Cl)c(C(F)(F)F)c4)c3C[C@H]2CN1C(=O)c1ccccc1	15.8 µM (inconclusive)

Biological target: Cytochrome P450 3A4 (Homo sapiens, UniProt P08684);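 further: CYP3A4 tested as one member of a cytochrome P450 panel screen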
Conditions: not given

Cytochrome P450 3A4, sequence (P08684 whole entry): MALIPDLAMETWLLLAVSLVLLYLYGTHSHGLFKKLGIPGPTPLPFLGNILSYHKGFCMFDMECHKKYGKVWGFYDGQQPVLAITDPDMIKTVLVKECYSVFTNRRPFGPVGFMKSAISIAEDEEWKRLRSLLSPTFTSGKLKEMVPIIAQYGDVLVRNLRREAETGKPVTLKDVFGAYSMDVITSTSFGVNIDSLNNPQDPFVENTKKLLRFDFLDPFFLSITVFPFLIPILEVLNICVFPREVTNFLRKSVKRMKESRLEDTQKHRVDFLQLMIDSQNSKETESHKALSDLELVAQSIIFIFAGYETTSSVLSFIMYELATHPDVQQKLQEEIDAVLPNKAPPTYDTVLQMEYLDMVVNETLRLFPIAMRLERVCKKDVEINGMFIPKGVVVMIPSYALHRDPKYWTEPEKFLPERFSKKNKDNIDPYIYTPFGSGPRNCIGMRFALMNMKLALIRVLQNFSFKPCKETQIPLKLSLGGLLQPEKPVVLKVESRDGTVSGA

Structure (SMILES)	AC50
O=C(CN1CCN(c2ccc(Cl)cc2)CC1)Nc1cccc(F)c1	25.1 µM (inconclusive)
COc1ccc(NC(=O)CSc2nnc(CNC(=O)c3ccco3)n2-c2ccccc2OC)cc1	39.8 µM (inconclusive)

Biological target: Cytochrome P450 2C9 (Homo sapiens, UniProt P11712)
Conditions: not given

Cytochrome P450 2C9, sequence (P11712 whole entry): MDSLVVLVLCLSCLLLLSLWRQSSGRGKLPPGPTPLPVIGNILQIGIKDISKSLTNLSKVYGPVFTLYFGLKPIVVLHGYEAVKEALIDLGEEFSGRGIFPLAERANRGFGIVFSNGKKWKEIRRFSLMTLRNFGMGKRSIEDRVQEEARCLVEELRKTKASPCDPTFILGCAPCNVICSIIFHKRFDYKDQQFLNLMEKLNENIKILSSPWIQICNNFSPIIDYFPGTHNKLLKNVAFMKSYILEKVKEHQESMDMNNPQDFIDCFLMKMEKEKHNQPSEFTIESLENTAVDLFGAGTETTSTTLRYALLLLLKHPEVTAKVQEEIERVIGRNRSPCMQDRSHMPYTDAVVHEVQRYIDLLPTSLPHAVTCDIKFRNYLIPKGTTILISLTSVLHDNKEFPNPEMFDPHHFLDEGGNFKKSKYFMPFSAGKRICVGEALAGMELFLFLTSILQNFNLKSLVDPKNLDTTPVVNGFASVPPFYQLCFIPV

Structure (SMILES)	AC50
COc1ccc(NC(=O)CSc2nnc(CNC(=O)c3ccco3)n2-c2ccccc2OC)cc1	5.01 µM (inconclusive)
CC(C)C(=O)NCCCc1ccccc1	5.62 µM (inconclusive)
